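48-hour exposure; five concentrations; linearly interpolated endpoints. GI50 = concentration required for 50% inhibition of growth. Definition used: TGI = concentration required for complete inhibition of growth.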
Columns and labels:
Assay in all cases: NCI-60 cell line screen, 48 h
A498 renal = system: A498 renal
CAKI-1 renal = system: CAKI-1 renal
KM12 colon = system: KM12 colon
MDA-MB-231 breast = system: MDA-MB-231 breast
MDA-MB-435 = system: MDA-MB-435
NCI-H226 lung = system: NCI-H226 lung
OVCAR-5 ovarian = system: OVCAR-5 ovarian
SK-OV-3 ovarian = system: SK-OV-3 ovarian
SR leukemia = system: SR leukemia
U251 CNS = system: U251 CNS

Row | SMILES | GI50 (A498 renal) | TGI (A498 renal) | GI50 (CAKI-1 renal) | TGI (CAKI-1 renal) | GI50 (KM12 colon) | TGI (KM12 colon) | GI50 (MDA-MB-231 breast) | TGI (MDA-MB-231 breast) | GI50 (MDA-MB-435) | TGI (MDA-MB-435) | GI50 (NCI-H226 lung) | TGI (NCI-H226 lung) | GI50 (OVCAR-5 ovarian) | TGI (OVCAR-5 ovarian) | GI50 (SK-OV-3 ovarian) | TGI (SK-OV-3 ovarian) | GI50 (SR leukemia) | TGI (SR leukemia) | GI50 (U251 CNS) | TGI (U251 CNS)
1 | Cc1cc(/C=C/c2ccc3cc(N(C)C)ccc3[n+]2C)c(C)n1-c1ccccc1 | 0.286 µM | 2.23 µM | 0.722 µM | 2.24 µM | 0.158 µM | 0.843 µM | 0.193 µM | 1.09 µM | 0.177 µM | 0.8 µM | 0.117 µM | 0.74 µM | 0.688 µM | 12.4 µM | 0.142 µM | 1 µM | 0.0442 µM | 1.42 µM | 0.129 µM | 1.16 µM
2 | COc1ncnc(NS(=O)(=O)c2ccc(N=C3C(=O)N(CN4CCN(c5c(F)cc6c(=O)c(C(=O)O)cn(C7CC7)c6c5OC)CC4C)c4ccc(Cl)cc43)cc2)c1OC (stereo not given) | 40.8 µM | > 50 µM | 6.44 µM | 26.1 µM | 13 µM | > 50 µM | 6.3 µM | > 50 µM | 9.34 µM | 19 µM | 27.1 µM | > 50 µM | 19.2 µM | > 50 µM | 37.7 µM | > 50 µM | 5.3 µM | > 50 µM | 9.61 µM | 45.2 µM
3 | CCCCCCCCC/C=C1\CCC(CN2CCOCC2)C1=O (stereo not given) | – | 24.5 µM | – | 6.38 µM | – | 5.2 µM | – | 11.2 µM | – | 6.5 µM | – | 15.3 µM | – | 31.6 µM | – | 31.2 µM | – | 6.28 µM | – | 3.73 µM
4 | N=Nc1c(OC(=O)Nc2cccc(Cl)c2)[nH]c2ccccc12 | – | 26.1 µM | – | 15.2 µM | – | 14.3 µM | – | 26.7 µM | – | 21.3 µM | – | 34.5 µM | – | 31.2 µM | – | 21.2 µM | – | 44.5 µM | – | 18.9 µM
5 | CCN1CCN(c2nc(C)cc(N(CCNc3ccnc4cc(Cl)ccc34)Cc3ccc4c(c3)OCO4)n2)CC1 | 1.9 µM | 5.71 µM | – | – | 3.97 µM | 15.2 µM | 1.38 µM | 3.19 µM | 1.7 µM | 3.25 µM | 15 µM | 33.6 µM | 3.58 µM | 13.6 µM | 2.99 µM | 8.73 µM | 1.33 µM | 3.71 µM | 1.56 µM | 3.12 µM
6 | CCN(CC)c1ccc(-c2cc(-c3cc(OC)c(OC)c(OC)c3)nc(N3CCOCC3)c2C#N)cc1 | 2.88 µM | 39.5 µM | 0.366 µM | > 53.2 µM | 1.99 µM | > 85.9 µM | 0.519 µM | > 20.8 µM | 1.32 µM | 13.7 µM | 2.34 µM | 42.2 µM | 1.42 µM | > 68.2 µM | 3.22 µM | > 100 µM | 0.163 µM | 0.672 µM | 2.48 µM | > 100 µM
7 | CC(=O)[C@@]12O[C@@H]1CC1C3CCC4=CC(O)CCC4(C)C3CCC12C (stereo not given in full) | 2.04 µM | 59.1 µM | > 100 µM | > 100 µM | 24.7 µM | > 100 µM | 12.5 µM | 26.8 µM | > 100 µM | > 100 µM | 75.9 µM | > 100 µM | 27.9 µM | 88.3 µM | – | – | > 100 µM | > 100 µM | 19.1 µM | 41.3 µM
8 | O=c1c2sccc2n(CC2COc3ccccc3O2)c(=O)n1O (stereo not given) | 13.3 µM | 38.1 µM | 20.1 µM | 97.3 µM | 9.21 µM | 86 µM | 39 µM | > 100 µM | 23.9 µM | > 100 µM | 24.6 µM | 83.6 µM | 40 µM | > 100 µM | 32.8 µM | > 100 µM | 8.1 µM | > 100 µM | 7.52 µM | > 100 µM
9 | COc1cc(C2c3cc4c(cc3OC(C)(O)C2C)OCO4)cc(OC)c1OC (stereo not given) | – | > 100 µM | – | > 100 µM | – | 57.6 µM | – | 24 µM | – | > 100 µM | – | 13.5 µM | – | > 100 µM | – | – | – | 14.2 µM | – | > 100 µM
10 | O=C1OC(O)[C@@H]2[C@H]1[C@H]1CC[C@@H]2O1 (stereo not given in full) | 7.07 µM | 51.9 µM | 71.9 µM | > 100 µM | 21.5 µM | 72.8 µM | > 74.3 µM | > 100 µM | > 100 µM | > 100 µM | > 79.4 µM | > 100 µM | 57.3 µM | > 100 µM | > 100 µM | > 100 µM | > 100 µM | > 100 µM | > 100 µM | > 100 µM
11 | Nc1ncnc2n[nH]c(Nc3ccc(F)cc3)c12 | 8.33 µM | 92.8 µM | 4.05 µM | > 100 µM | 20.3 µM | 86.3 µM | 21.5 µM | 81.2 µM | 19.7 µM | 49.6 µM | 51 µM | > 100 µM | 60 µM | > 100 µM | 6.93 µM | > 100 µM | 13.3 µM | 94.6 µM | 28.6 µM | > 100 µM
12 | CSc1nc(NC2OCC(OC(C)=O)C(OC(C)=O)C2OC(C)=O)c(N=CC=Nc2c(NC3OCC(OC(C)=O)C(OC(C)=O)C3OC(C)=O)nc(SC)[nH]c2=O)c(=O)[nH]1 (stereo not given) | – | > 100 µM | – | > 100 µM | – | > 100 µM | – | > 100 µM | – | > 100 µM | – | > 88.8 µM | – | > 100 µM | – | 80.1 µM | – | > 100 µM | – | > 100 µM
13 | Fc1cc2[nH]ncc2c2c3c(c(-c4cn[nH]c4)nc12)CCCC3 | 0.365 µM | 1.64 µM | 0.398 µM | 7.08 µM | 1 µM | 7.38 µM | 1.5 µM | 5.24 µM | 0.959 µM | 3.61 µM | 1.28 µM | 5.85 µM | 2.13 µM | 12.2 µM | 0.287 µM | 1.24 µM | 0.355 µM | > 100 µM | 0.55 µM | 13.4 µM
14 | CN(C(=O)c1ccc(C(F)(F)F)cc1)c1ccc(Oc2ccc3c(c2)cc(C(=O)N2CCN(Cc4ccc(OC(F)F)cc4)CC2)n3C)nc1 | 0.729 µM | > 100 µM | 2.27 µM | > 100 µM | 35.9 µM | > 100 µM | > 80.2 µM | > 100 µM | 3.73 µM | > 100 µM | 1.44 µM | > 100 µM | > 100 µM | > 100 µM | > 100 µM | > 100 µM | < 0.01 µM | > 100 µM | 6 µM | > 100 µM

Reference: PubChem BioAssay (NCI)
